According to patent publication US20240391887A1, “New VASHs inhibitors, conjugates thereof and their uses as drugs or as research tools” (Centre National de Recherche Scientifique (CNRS), priority 2021, published 2024):
pIC50: −log10 of the molar value. “Also recorded” adds a separate entry of the source. Like-named read-outs stand apart in the source and are kept apart here. Each block holds one compound with its values, some of them ahead of it.

Assays:
VASH1 [1] = molecular target: T1, VASH1 (Homo sapiens, UniProt Q7L8A9); test: In vitro detyrosination assay using recombinant VASH1 (immunoblot); conditions: concentration not given
T1 sequence (Q7L8A9 whole entry): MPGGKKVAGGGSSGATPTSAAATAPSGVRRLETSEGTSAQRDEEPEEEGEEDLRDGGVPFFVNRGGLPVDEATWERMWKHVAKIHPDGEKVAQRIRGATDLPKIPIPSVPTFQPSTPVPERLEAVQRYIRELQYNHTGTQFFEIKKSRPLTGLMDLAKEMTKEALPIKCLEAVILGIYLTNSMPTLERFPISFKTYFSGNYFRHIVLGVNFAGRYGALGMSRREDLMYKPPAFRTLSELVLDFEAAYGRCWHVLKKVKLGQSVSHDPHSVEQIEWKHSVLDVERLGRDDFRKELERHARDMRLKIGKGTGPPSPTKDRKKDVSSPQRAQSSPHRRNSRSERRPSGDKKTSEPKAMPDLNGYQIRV
T1 sequence (Q8N300 whole entry partner): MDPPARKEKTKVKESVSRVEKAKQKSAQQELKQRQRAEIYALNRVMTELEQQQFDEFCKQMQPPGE

VASH2 = VASH2 (Homo sapiens, UniProt Q86V25); test: In vitro detyrosination assay, VASH2-mediated (immunoblot); type: biochemical; conditions: concentration not given
Sequence of VASH2 (Q86V25 whole entry, species assumed): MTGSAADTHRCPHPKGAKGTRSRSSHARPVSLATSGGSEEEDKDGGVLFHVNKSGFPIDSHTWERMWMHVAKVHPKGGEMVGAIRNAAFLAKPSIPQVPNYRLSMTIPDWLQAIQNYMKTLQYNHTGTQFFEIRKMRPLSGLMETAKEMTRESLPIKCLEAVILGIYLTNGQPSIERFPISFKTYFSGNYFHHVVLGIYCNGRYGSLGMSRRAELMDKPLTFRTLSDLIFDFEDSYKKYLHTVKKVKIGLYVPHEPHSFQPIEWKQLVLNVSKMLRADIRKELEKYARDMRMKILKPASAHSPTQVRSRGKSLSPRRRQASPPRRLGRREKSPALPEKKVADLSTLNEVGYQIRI

carboxypeptidase A (CPA) = molecular target: T2, carboxypeptidase A (CPA) (Bos taurus, UniProt P00730); test: Carboxypeptidase A-dependent tubulin detyrosination in vitro; type: biochemical; conditions: concentration not given
T2 sequence (P00730 111-419): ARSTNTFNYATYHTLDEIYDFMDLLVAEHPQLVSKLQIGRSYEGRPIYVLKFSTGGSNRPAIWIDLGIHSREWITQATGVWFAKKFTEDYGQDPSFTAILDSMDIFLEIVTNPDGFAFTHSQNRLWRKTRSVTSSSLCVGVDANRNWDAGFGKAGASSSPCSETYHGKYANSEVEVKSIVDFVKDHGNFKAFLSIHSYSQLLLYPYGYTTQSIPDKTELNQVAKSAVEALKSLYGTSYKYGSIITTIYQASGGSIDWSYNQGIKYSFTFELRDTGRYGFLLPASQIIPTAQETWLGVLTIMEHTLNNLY

VASHs = conditions: background statement; read-out: IC50 in cellulo; cited from earlier work
[2] = tested on: VASH-mediated tubulin detyrosination in human CHL-1 cells; test: In cellulo taxol-induced tubulin detyrosination assay in CHL-1 cells
VASH1 [3] = molecular target: T1, VASH1; test: Standardized in vitro detyrosination ELISA based assay; type: biochemical; design: poly-histidine tag; made in house; host or cells: bacteria (IPTG induction); conditions: for in vitro VASH inhibition activity / in vitro activity compared with reference compounds: in vitro detyrosination assay; for Fold change/ LV-80: ratio IC50(compound)/IC50(LV80)
Description: Standardized primary ELISA-based in vitro detyrosination assay in a 96-wells format has been developed according to the method disclosed in WO2020/012002. […] Primary (rabbit anti-detyrosinated tubulin) is incubated for 1 hour and after washes, secondary (anti-rabbit) antibody is added to each well. The plate is incubated 1 h at room temperature. Development consists of addition of TMB (3,3′,5,5′-Tetramethylbenzidine) to each well, incubation 30 minute at room temperature. The colour development is stopped by addition of 0.5 M sulfuric acid. OD is measured at 450 nm.
The in vitro inhibition activity of IBMT11 is tested by adding the compound to the reaction medium as described above (see part 2.2) and then detyrosination was analysed by immunoblotting with the indicated antibodies.

[4] = Solubility in water or PBS solution; type: physicochemical; conditions: compared with the corresponding base LV-80
CHL-1 cells [5] = test: LC/MS bioanalysis of penetration and conversion in human cells; type: in vitro ADME; conditions: 25 uM, 1 hour
Description: CHL-1 cells have been treated with 25 uM of LV-104 for 1 hour. Culture supernatant have been collected immediately (initial) and 1 hour (supernatant) after compound addition. Cells have been washed, lysed and processed for LC/MS reading (Cells) to detect LV-104 and its bio converted form IBMT11.
Peptide stability in serum Human serum reaction sample contained 250 μl of heat inactivated Human Serum (Sigma Aldrich) and 750 μL of RPMI Medium 1640 (Sigma Aldrich). The reactions were initiated by addition of 50 μl compound (in mM stock solution in DMSO). Assays were performed in a shaking water bath at 37° C. 100 μl samples were collected at known time intervals and added to 200 μl of acetonitrile 1% % TFA to precipitate serum proteins. Cloudy sample was cooled to 4° C. for 15 min and then submitted to centrifugation for 10 min at 12,000 rpm to pellet the precipitated serum proteins. 150 μl of the clear supernatants were collected and peptides were finally analyzed by RPHPLC and LC-MS.
The bioanalysis of the penetration and the conversion of the compound LV-104 has been achieved using the above described protocol on human cells (see part 2.2). The results are illustrated on FIG. 14.

CHL-1 cells [6] = test: MTT-based colorimetric cell viability assay; design: species or system human; conditions: 0.1 μM, 24 hours
Excerpt: We next choose a widely used MTT-based colorimetric assay to assess the potential metabolic toxicity and cell viability alterations in the presence of LV-80. […]

[7] = calculated in vitro IC50, read-out: IC50
[8] = read-out: IC50 on cells, compounds added prior Taxol-treatment, FIG. 12

- effect on VASH1-mediated detyrosination in vitro (VASH1 [1]): did not affect
- effect on VASH2-mediated detyrosination in vitro (VASH2): did not affect
- effect on CPA-dependent detyrosination (carboxypeptidase A (CPA)): completely abolished
SMILES: O=C(O)CC(Cc1ccccc1)C(=O)O (stereo not drawn) [BzISA, benzylsuccinic acid, reference compound]

- pIC50 ([2]; read-out: IC50 in cellulo, taxol-induced detyrosination assay, FIG. 4F): 5.52
SMILES: CCOC(=O)[C@H]1O[C@@H]1C(=O)N[C@@H](Cc1ccc(O)cc1)C(=O)O [Epo-Y, reference compound]
- pIC50 (VASHs): ~4.82
- effect on tubulin acetylation ([2]; taxol treated CHL-1 cells): without affecting
- inhibition of tubulin detyrosination in cellulo ([2]; taxol treated CHL-1 cells): dose-dependently inhibited; also recorded: reduced tubulin detyrosination in a dose-dependent manner

- in vitro VASH inhibition activity (VASH1 [3]): inactive
SMILES: CCOC(=O)CCCCNC(=O)[C@H]1O[C@@H]1C(=O)N[C@@H](Cc1ccc(OCC)cc1)C(=O)OCC [IBMT23]
- in cellulo activity compared with reference compounds ([2]; taxol treated CHL-1 cells): more potent on cultured cells than LV80; also recorded: as potent in vivo as LV80
- inhibition of tubulin detyrosination in cellulo ([2]; taxol treated CHL-1 cells): excellent

- pIC50 (VASH1 [3]; VASH1-mediated tubulin detyrosination, FIG. 13.A, read-out: in vitro IC50): 6.22
- in vitro activity compared with reference compounds (VASH1 [3]): more potently than Epo-Y
- Fold change/ LV-80 (VASH1 [3]): 2
SMILES: CCOc1ccc(C[C@H](NC(=O)[C@H]2O[C@@H]2C(=O)N[C@H](Cc2ccc(OCC)cc2)C(=O)O)C(=O)O)cc1 [IBMT-11]
- inhibition of tubulin detyrosination in cellulo ([2]; taxol treated CHL-1 cells): weak inhibition activity

- pIC50 (VASH1 [3]; [7]): 5.41
- Fold change/ LV-80 (VASH1 [3]): 13
SMILES: CCOc1ccc(C[C@H](NC(=O)[C@H]2O[C@@H]2C(=O)NCCCCC(=O)O)C(=O)O)cc1 [IBMT-26]

- pIC50 (VASH1 [3]; [7]): 6.52
- Fold change/ LV-80 (VASH1 [3]): 1
SMILES: O=C(O)CCC[C@@H](NC(=O)[C@H]1O[C@@H]1C(=O)N[C@@H](Cc1ccc(OCc2ccccc2)cc1)C(=O)O)C(=O)NCCc1ccccc1 [IBMT-29 hydro]

- pIC50 (VASH1 [3]; [7]): 5.38
- Fold change/ LV-80 (VASH1 [3]): 14
SMILES: CCOC(=O)[C@H](Cc1ccc(OCc2ccccc2)cc1)NC(=O)[C@H]1O[C@@H]1C(=O)N[C@H](CCCC(=O)O)C(=O)NCCc1ccccc1 [IBMT-29]

- pIC50 (VASH1 [3]; [7]): 5.41
- Fold change/ LV-80 (VASH1 [3]): 13
SMILES: CC(C)(C)ONC(=O)CCC[C@@H](NC(=O)[C@H]1O[C@@H]1C(=O)N[C@@H](Cc1ccc(OCc2ccccc2)cc1)C(=O)O)C(=O)NCCc1ccccc1 [IBMT-31 hydro]

- pIC50 (VASH1 [3]; [7]): 6.52
- in vitro activity compared with reference compounds (VASH1 [3]): same activity
- Fold change/ LV-80 (VASH1 [3]): 1
- solubility in water or PBS solution [4]: dramatically increased
SMILES: O=C([O-])CCC[C@H](NC(=O)[C@H]1O[C@@H]1C(=O)N[C@@H](Cc1ccc(OCc2ccccc2)cc1)C(=O)[O-])C(=O)NCCc1ccccc1.[Na+].[Na+] [IBMT-34]
- in cellulo activity compared with reference compounds ([2]; taxol treated CHL-1 cells): same activity

SMILES: NC(=O)C(CCCC(=O)O)NC(=O)C1OC1C(=O)NC(Cc1ccc(O)cc1)C(=O)O (stereo not drawn) [LV-43]
- in cellulo activity compared with reference compounds ([2]; taxol treated CHL-1 cells): much less efficient than Epo-Y

- pIC50 (VASH1 [3]; [7]): 5.92
- Fold change/ LV-80 (VASH1 [3]): 4
SMILES: O=C(O)[C@H](Cc1ccc(O)cc1)NC(=O)[C@H]1O[C@@H]1C(=O)N[C@@H](Cc1ccc(O)cc1)C(=O)O [LV-59]

- effect on VASH1-mediated detyrosination in vitro (VASH1 [1]): did not have any effect
- in vitro VASH inhibition activity (VASH1 [3]): did not inhibit
- pIC50 [2, 8]: 8.10
- conversion of prodrug into IBMT11 inside human cells (CHL-1 cells [5]): total conversion
- detection of parent compound inside cells (CHL-1 cells [5]): undetectable
- effect on VASH2-mediated detyrosination in vitro (VASH2): did not have any effect
SMILES: CCOC(=O)[C@H](Cc1ccc(OCC)cc1)NC(=O)[C@H]1O[C@@H]1C(=O)N[C@@H](Cc1ccc(OCC)cc1)C(=O)OCC [LV-104]
- inhibition of tubulin detyrosination in cellulo ([2]; taxol treated CHL-1 cells): very efficient inhibition

- effect on VASH1-mediated detyrosination in vitro (VASH1 [1]): did not have any effect
- pIC50 [2, 8]: 7.70
- effect on VASH2-mediated detyrosination in vitro (VASH2): did not have any effect
SMILES: CCOC(=O)[C@H](Cc1ccc(OCC)cc1)NC(=O)[C@H]1O[C@@H]1C(=O)OCC [LV-111]

- in vitro activity compared with reference compounds (VASH1 [3]): very less potent than LV-80
SMILES: CCOC(=O)C1OC1C(=O)NC(Cc1ccc(O)cc1)C(=O)OC(C)(C)C (stereo not drawn) [SD-139, reference compound]

- in vitro activity compared with reference compounds (VASH1 [3]): very less potent than LV-80
SMILES: O=C(O)C(Cc1ccc(O)cc1)NC(=O)C1OC1C(=O)O (stereo not drawn) [SD-139sapo, reference compound]

- pIC50 (VASH1 [3]; [7]): 6.22
- Fold change/ LV-80 (VASH1 [3]): 2
SMILES: O=C(O)[C@H](Cc1ccc(OCc2ccccc2)cc1)NC(=O)[C@H]1O[C@@H]1C(=O)N[C@@H](Cc1ccc(OCc2ccccc2)cc1)C(=O)O [Synthé Mix hydro]

SMILES: CC(=O)O[C@H]1C(=O)[C@@]2(C)[C@H]([C@H](OC(=O)c3ccccc3)[C@]3(O)C[C@H](OC(=O)[C@H](O)[C@@H](NC(=O)c4ccccc4)c4ccccc4)C(C)=C1C3(C)C)[C@]1(OC(C)=O)CO[C@@H]1C[C@@H]2O [taxol, paclitaxel]
- cell viability (CHL-1 cells [6]): significant reduction
